Reference: ChEMBL document CHEMBL3351643, “A potent cyclic peptide targeting SPSB2 protein as a potential anti-infective agent” (J Med Chem, 2014)
Calls of active or inactive are those of the source. The rule behind the calls is not given here. Where a SMILES comes first, the peptide text is derived from it. Bridges are numbered along the chain shown (N, C = ends).

Tests used:
[1] = molecular target: T1, SPRY domain-containing SOCS box protein 2 (Homo sapiens, UniProt Q99619); experiment: Binding affinity to GST-tagged SPSB2 (unknown origin) expressed in Escherichia coli BL21 (DE3) by SPR assay
T1 sequence (Q99619 whole entry): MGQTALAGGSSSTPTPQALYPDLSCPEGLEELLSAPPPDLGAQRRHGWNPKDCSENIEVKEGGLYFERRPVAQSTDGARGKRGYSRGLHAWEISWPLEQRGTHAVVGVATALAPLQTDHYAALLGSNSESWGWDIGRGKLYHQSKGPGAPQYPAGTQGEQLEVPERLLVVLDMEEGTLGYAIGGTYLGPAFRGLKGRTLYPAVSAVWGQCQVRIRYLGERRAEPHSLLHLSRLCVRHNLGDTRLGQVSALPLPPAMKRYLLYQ

[2] = Stability of the compound assessed as pepsin (unknown origin)-mediated drug degradation at 200:1 peptide to enzyme ratio after 24 to 96 hrs by RP-HPLC analysis; assay type: ADME; conditions: human
[3] = Stability in human plasma assessed as compound remaining at 50 uM after 24 hrs by RP-HPLC analysis; assay type: ADME, cell-free; conditions: read-out: Stability
[4] = Stability of the compound in 1:10 ratio of DTT:H2O2 at 0.5 mg/ml after 1 hr by redox stability/RP-HPLC assay; assay type: physicochemical
[5] = Stability of the compound in 1 mM DTT at 0.5 mg/ml after 15 mins by redox stability/RP-HPLC assay; assay type: physicochemical; conditions: 0.25 h
[6] = Stability of the compound assessed as trypsin (unknown origin)-mediated drug degradation at 200:1 peptide to enzyme ratio after 24 to 96 hrs by RP-HPLC analysis; assay type: ADME; conditions: human
[7] = Stability of the compound in 1:1 ratio of DTT:H2O2 at 0.5 mg/ml after 1 hr by redox stability/RP-HPLC assay; assay type: physicochemical; conditions: 1:1 DTT:H2O2; read-out: Stability
[8] = molecular target: T2, SPRY domain-containing SOCS box protein 2 (Mus musculus) (UniProt O88838); experiment: Displacement of full-length of iNOS from SPSB2 in LPS/IFNgamma-stimulated mouse BMDM cell lysate at 10 uM after 2 hrs by Western blotting analysis; assay type: cell-free
T2 sequence (whole entry): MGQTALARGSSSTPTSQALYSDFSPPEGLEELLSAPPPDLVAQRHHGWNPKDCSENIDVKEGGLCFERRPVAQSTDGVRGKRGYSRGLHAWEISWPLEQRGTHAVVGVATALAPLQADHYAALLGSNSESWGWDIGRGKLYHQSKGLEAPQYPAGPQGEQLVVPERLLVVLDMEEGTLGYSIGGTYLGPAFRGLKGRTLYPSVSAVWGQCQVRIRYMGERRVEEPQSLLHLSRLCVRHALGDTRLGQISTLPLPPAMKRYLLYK

[9] = Stability of the compound assessed as alpha-chymitrypsin (unknown origin)-mediated drug degradation at 200:1 peptide to enzyme ratio after 24 to 96 hrs by RP-HPLC analysis; assay type: ADME; conditions: human

In the case of Ac-DINNN-NH2, the Kd [1] is reported as 0.318 µM.

In the case of Ac-KEEKDINNNVKKT-NH2, the Stability [2] is reported as “Unstable” and the remaining at 24 h, 50 µM [3] is reported as 83%.

In the case of `CC[C@H](C)[C@@H]1NC(=O)[C@H](CC(=O)O)NC(=O)[C@H](C(C)C)NC(=O)[C@@H](NC(C)=O)CSSC[C@@H](C(N)=O)NC(=O)[C@H](CC(N)=O)NC(=O)[C@H](CC(N)=O)NC(=O)[C@H](CC(N)=O)NC1=O` (Ac-CVDINNNC-NH2; disulfide 1-8), the Kd [1] is reported as 0.0044 µM.

With `CC[C@H](C)[C@H](NC(=O)[C@H](CC(=O)O)NC(=O)[C@@H](NC(=O)[C@H](CS)NC(C)=O)C(C)C)C(=O)N[C@@H](CC(N)=O)C(=O)N[C@@H](CC(N)=O)C(=O)N[C@@H](CC(N)=O)C(=O)N[C@@H](CS)C(N)=O` (Ac-CVDINNNC-NH2) the Kd [1] was 0.0351 µM, the Stability [4] was “Stable” and the Stability [5] was “Unstable”. The Stability [2] was “Stable”, the Stability [6] was “Stable” and the remaining at 1 h, 0.5 mg/ml [7] was 55%. For the same molecule, the inhibition [8] was “Active” and the Stability [9] was “Stable”.
